The record followed here is patent US20150175599A1, “FAAH Inhibitors” (Ironwood Pharmaceuticals, Inc., priority 2010, published 2015).

For one test, the target named is T1, FAAH (Homo sapiens, UniProt O00519).
T1 construct: Reactions were initiated by adding 12.5 μg of brain microsome; tissue ABS, Inc; host or cells: human brain cerebral cortex, membrane/microsome fraction pooled from 3 donors
T1 sequence (O00519 1-579): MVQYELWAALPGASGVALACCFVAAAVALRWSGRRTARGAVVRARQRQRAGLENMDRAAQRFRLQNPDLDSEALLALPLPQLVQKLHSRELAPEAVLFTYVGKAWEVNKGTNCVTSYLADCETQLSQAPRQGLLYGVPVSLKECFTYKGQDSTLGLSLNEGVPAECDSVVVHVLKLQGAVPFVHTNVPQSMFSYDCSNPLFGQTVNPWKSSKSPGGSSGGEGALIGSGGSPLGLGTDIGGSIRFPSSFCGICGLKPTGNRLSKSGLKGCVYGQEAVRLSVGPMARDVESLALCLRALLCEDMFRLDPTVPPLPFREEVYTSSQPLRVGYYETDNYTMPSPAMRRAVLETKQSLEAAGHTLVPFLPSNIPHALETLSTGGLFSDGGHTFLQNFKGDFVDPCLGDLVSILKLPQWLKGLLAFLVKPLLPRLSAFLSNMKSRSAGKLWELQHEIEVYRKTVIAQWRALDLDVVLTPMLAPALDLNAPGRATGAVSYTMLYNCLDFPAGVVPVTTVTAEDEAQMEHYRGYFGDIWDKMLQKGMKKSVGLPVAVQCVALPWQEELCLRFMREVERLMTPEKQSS
The test is described as follows: FAAH inhibition, human brain membrane homogenate assay. It counts as biochemical. Particulars: human brain homogenate; average activity; read-out: Human brain Extract FAAH IC50.

The target in the next test is T2, human FAAH-1 (Homo sapiens, UniProt O00519).
T2 sequence (O00519 1-579): T1 sequence (O00519 1-579)
The test is described as follows: Whole cell anandamide hydrolysis assay (HeLa clone 5c5 transfected with human FAAH-1). It is filed as cell-based. Particulars: HeLa clone 5c5 expressing human FAAH-1; read-out: human FAAH whole cell IC50. The gist of the method:
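Stable HeLa clone 5c5 expressing human FAAH-1, pre-incubated with compound 10 min at 37° C in DMEM/F12 with 15 mM HEPES pH 7.4 and 0.1% fatty-acid-free BSA. [3H]-anandamide (5 μM stock) added for 15 min; [3H]-ethanolamine separated on charcoal and counted. IC50 from curves constrained to 100% and 0%.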

Some results are limits rather than exact numbers.

Consider `COc1cc(NC(=O)C(=O)c2c(C)n(Cc3ccc(Cl)cc3Cl)c3cc(F)c(OC)cc23)ccn1` [Compound 92, 2-(1-(2,4-dichlorobenzyl)-6-fluoro-5-methoxy-2-methyl-1H-indol-3-yl)-N-(2-methoxypyridin-4-yl)-2-oxoacetamide], for which the IC50 on FAAH and at human FAAH-1 was below 100 nM in each case.
Take `COc1ccc2c(c1)c(C(=O)C(=O)Nc1ccnc(OC)c1)c(C)n2Cc1cccnc1` [Compound 78, 2-(5-methoxy-2-methyl-1-(pyridin-3-ylmethyl)-1H-indol-3-yl)-N-(2-methoxypyridin-4-yl)-2-oxoacetamide]: the IC50 (as a rule, the concentration that gives 50% inhibition) at FAAH was 100 to 1000 nM; on human FAAH-1, below 100 nM.
In the same order, the values of `COc1cc(NC(=O)C(=O)c2c(C)n(Cc3ccc(Cl)cn3)c3cc(F)c(C)cc23)ccn1` [Compound 90, 2-(1-((5-chloropyridin-2-yl)methyl)-6-fluoro-2,5-dimethyl-1H-indol-3-yl)-N-(2-methoxypyridin-4-yl)-2-oxoacetamide] are below 100 nM and below 100 nM.
In the same order, the values of `COc1cc(NC(=O)C(=O)c2c(C)n(Cc3ccc(Cl)cn3)c3cc(Cl)c(C)cc23)ccn1` [Compound 94, 2-(6-chloro-1-((5-chloropyridin-2-yl)methyl)-2,5-dimethyl-1H-indol-3-yl)-N-(2-methoxypyridin-4-yl)-2-oxoacetamide] are below 100 nM and below 100 nM.
As for `COc1cc(NC(=O)C(=O)c2c(C)n(Cc3ccc(F)cn3)c3ccc(C)cc23)ccn1` [Compound 85, 2-(1-((5-fluoropyridin-2-yl)methyl)-2,5-dimethyl-1H-indol-3-yl)-N-(2-methoxypyridin-4-yl)-2-oxoacetamide], the IC50 at FAAH and at human FAAH-1 was below 100 nM throughout.
Take `COc1ccc2c(c1)c(C(=O)C(=O)Nc1ccnc(OC)c1)c(C)n2Cc1ccc(C)cn1` [Compound 84, 2-(5-methoxy-2-methyl-1-((5-methylpyridin-2-yl)methyl)-1H-indol-3-yl)-N-(2-methoxypyridin-4-yl)-2-oxoacetamide]: the IC50 at FAAH and at human FAAH-1 was below 100 nM throughout.
`COc1cc(NC(=O)C(=O)c2c(C)n(Cc3ccc(Cl)cc3)c3cc(Cl)c(C)cc23)ccn1` [Compound 93, 2-(6-chloro-1-(4-chlorobenzyl)-2,5-dimethyl-1H-indol-3-yl)-N-(2-methoxypyridin-4-yl)-2-oxoacetamide]: the 50% inhibitory concentration (IC50) at FAAH and on human FAAH-1 was below 100 nM throughout.
Regarding `COc1cc(NC(=O)C(=O)c2c(C)n(Cc3ccc(Cl)cc3)c3ccc(C(=O)O)cc23)ccn1` [Compound 4, 1-(4-chlorobenzyl)-3-(2-(2-methoxypyridin-4-ylamino)-2-oxoacetyl)-2-methyl-1H-indole-5-carboxylic acid], the IC50 on FAAH and on human FAAH-1 was 1000 to 10000 nM each time.
Take `COc1cc(NC(=O)C(=O)c2c(C)n(Cc3ccc(Cl)cc3)c3cc(F)c(C)cc23)ccn1` [Compound 89, 2-(1-(4-chlorobenzyl)-6-fluoro-2,5-dimethyl-1H-indol-3-yl)-N-(2-methoxypyridin-4-yl)-2-oxoacetamide]: the IC50 on FAAH and on human FAAH-1 was below 100 nM in each case.
For the molecule `COc1ccc2c(c1)c(C(=O)C(=O)Nc1ccnc(OC)c1)c(C)n2Cc1ncc(Cl)cc1Cl` [Compound 82, 2-(1-((3,5-dichloropyridin-2-yl)methyl)-5-methoxy-2-methyl-1H-indol-3-yl)-N-(2-methoxypyridin-4-yl)-2-oxoacetamide], the IC50 on FAAH and at human FAAH-1 was below 100 nM throughout.
In the case of `COc1ccc2c(c1)c(C(=O)C(=O)Nc1ccnc(OC)c1)c(C)n2Cc1ccc(Cl)nn1` [Compound 86, 2-(1-((6-chloropyridazin-3-yl)methyl)-5-methoxy-2-methyl-1H-indol-3-yl)-N-(2-methoxypyridin-4-yl)-2-oxoacetamide], the IC50 on FAAH and on human FAAH-1 was below 100 nM throughout.
With `COc1ccc2c(c1)c(C(=O)C(=O)Nc1ccnc(OC)c1)c(C)n2Cc1ccc(Cl)cn1` [Compound 79, 2-(1-((5-chloropyridin-2-yl)methyl)-5-methoxy-2-methyl-1H-indol-3-yl)-N-(2-methoxypyridin-4-yl)-2-oxoacetamide], the IC50 at FAAH and at human FAAH-1 was below 100 nM throughout.
As for `COc1ccc2c(c1)c(C(=O)C(=O)Nc1ccnc(OC)c1)c(C)n2Cc1ncc(Cl)cc1F` [Compound 87, 2-(1-((5-chloro-3-fluoropyridin-2-yl)methyl)-5-methoxy-2-methyl-1H-indol-3-yl)-N-(2-methoxypyridin-4-yl)-2-oxoacetamide], the IC50 on FAAH and at human FAAH-1 was below 100 nM in each case.
For `COc1cc(NC(=O)C(=O)c2c(C)n(Cc3ccc(Cl)cc3)c3cc(OC)c(Cl)cc23)ccn1` [Compound 80, 2-(5-chloro-1-(4-chlorobenzyl)-6-methoxy-2-methyl-1H-indol-3-yl)-N-(2-methoxypyridin-4-yl)-2-oxoacetamide], the IC50 at FAAH and at human FAAH-1 was below 100 nM each time.
In the case of `COc1ccc2c(c1)c(C(=O)C(=O)Nc1ccnc(OC)c1)c(C)n2Cc1ncccn1` [Compound 83, 2-(5-methoxy-2-methyl-1-(pyrimidin-2-ylmethyl)-1H-indol-3-yl)-N-(2-methoxypyridin-4-yl)-2-oxoacetamide], the values for the IC50 at FAAH and on human FAAH-1 were 1000 to 10000 nM and 100 to 1000 nM, respectively.
As to `COc1cc(NC(=O)C(=O)c2c(C)n(Cc3ccc(Cl)cc3F)c3cc(F)c(OC)cc23)ccn1` [Compound 91, 2-(1-(4-chloro-2-fluorobenzyl)-6-fluoro-5-methoxy-2-methyl-1H-indol-3-yl)-N-(2-methoxypyridin-4-yl)-2-oxoacetamide], the IC50 at FAAH and on human FAAH-1 was below 100 nM in each case.
As for `COc1ccc2c(c1)c(C(=O)C(=O)Nc1ccnc(OC)c1)c(C)n2Cc1ncc(F)cc1F` [Compound 81, 2-(1-((3,5-difluoropyridin-2-yl)methyl)-5-methoxy-2-methyl-1H-indol-3-yl)-N-(2-methoxypyridin-4-yl)-2-oxoacetamide], the IC50 at FAAH and on human FAAH-1 was below 100 nM throughout.
With `COc1cc(NC(=O)C(=O)c2c(C)n(Cc3ccc(Cl)cc3)c3cccnc23)ccn1` [Compound 3, 2-(1-(4-chlorobenzyl)-2-methyl-1H-pyrrolo[3,2-b]pyridin-3-yl)-N-(2-methoxypyridin-4-yl)-2-oxoacetamide], the IC50 on FAAH and on human FAAH-1 was below 100 nM throughout.
